Measured values reported in the supplement of paper PMC10307832.

Columns and labels:
Experiment in all cases: relative viability (nuclei count vs DMSO), 5 days (fraction); higher = more cells survive
Afatinib = compound: CN(C)C/C=C/C(=O)Nc1cc2c(Nc3ccc(F)c(Cl)c3)ncnc2cc1O[C@H]1CCOC1 [Afatinib]
Summary of the method: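 Viability was read as treated-well nuclei divided by vehicle-well nuclei, using the median across plates. Lung cancer cell lines in 1536-well plates were kept overnight at 37 °C, pinned with five √10-spaced library-drug doses, and after 5 days were Hoechst-stained, imaged at 4× and counted in MetaXpress. Plates passed only with control CV below 25% and at least one doubling.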

Afatinib + Trametinib = compound: CN(C)C/C=C/C(=O)Nc1cc2c(Nc3ccc(F)c(Cl)c3)ncnc2cc1O[C@H]1CCOC1 [Afatinib] + CC(=O)Nc1cccc(-n2c(=O)n(C3CC3)c(=O)c3c(Nc4ccc(I)cc4F)n(C)c(=O)c(C)c32)c1 [Trametinib] (partner 0.02 µM)
Summary of the method: (§1)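 Relative viability equals treated-well nuclei counts divided by vehicle-well nuclei counts. Counts came from 4× images of lung cancer cell lines grown in 1536-well plates for 5 days after pin-tool dosing on the day after seeding. Dosing used one drug alone or a fixed anchor-drug dose plus five library-drug doses (not always all listed) in √10 steps, and values are medians of duplicate plates.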

Afatinib + OSI-027 = compound: CN(C)C/C=C/C(=O)Nc1cc2c(Nc3ccc(F)c(Cl)c3)ncnc2cc1O[C@H]1CCOC1 [Afatinib] + COc1cccc2cc(-c3nc([C@H]4CC[C@H](C(=O)O)CC4)n4ncnc(N)c34)[nH]c12 [OSI-027] (partner 0.5 µM)
Summary of the method: as §1

Afatinib + Phenformin = compound: CN(C)C/C=C/C(=O)Nc1cc2c(Nc3ccc(F)c(Cl)c3)ncnc2cc1O[C@H]1CCOC1 [Afatinib] + N=C(N)NC(=N)NCCc1ccccc1 [Phenformin] (partner 250 µM)
Summary of the method: as §1

| Cell Line | relative viability (Afatinib; 0.005 µM) | relative viability (Afatinib; 0.01581 µM) | relative viability (Afatinib; 0.05 µM) | relative viability (Afatinib; 0.5 µM) | relative viability (Afatinib + Trametinib; first compound 0.005 µM) | relative viability (Afatinib + Trametinib; first compound 0.01581 µM) | relative viability (Afatinib + Trametinib; first compound 0.05 µM) | relative viability (Afatinib + Trametinib; first compound 0.1581 µM) | relative viability (Afatinib + Trametinib; first compound 0.5 µM) | relative viability (Afatinib + OSI-027; first compound 0.005 µM) | relative viability (Afatinib + OSI-027; first compound 0.01581 µM) | relative viability (Afatinib + OSI-027; first compound 0.05 µM) | relative viability (Afatinib + OSI-027; first compound 0.1581 µM) | relative viability (Afatinib + OSI-027; first compound 0.5 µM) | relative viability (Afatinib + Phenformin; first compound 0.005 µM) | relative viability (Afatinib + Phenformin; first compound 0.01581 µM) | relative viability (Afatinib + Phenformin; first compound 0.05 µM) | relative viability (Afatinib + Phenformin; first compound 0.1581 µM) | relative viability (Afatinib + Phenformin; first compound 0.5 µM) | relative viability (Afatinib; 0.1581 µM) |
| --- | --- | --- | --- | --- | --- | --- | --- | --- | --- | --- | --- | --- | --- | --- | --- | --- | --- | --- | --- | --- |
| PC-14 | 0.371 | 0.224 | 0.298 | 0.282 | 0.101 | 0.103 | 0.117 | 0.0763 | 0.0964 | 0.103 | 0.104 | 0.136 | 0.131 | 0.0975 | 0.173 | 0.123 | 0.175 | 0.161 | 0.171 | – |
| RERF-LC-KJ | 0.92 | 0.938 | 0.908 | 0.831 | 0.852 | 0.806 | 0.723 | 0.684 | 0.674 | 0.527 | 0.439 | 0.448 | 0.336 | 0.318 | 0.423 | 0.393 | 0.342 | 0.315 | 0.335 | 0.794 |
| SK-LU-1 | 1.07 | 1 | 1.07 | 1.06 | 0.504 | 0.405 | 0.604 | 0.526 | 0.483 | 0.389 | 0.415 | 0.327 | 0.318 | 0.352 | 0.634 | 0.536 | 0.605 | 0.511 | 0.47 | 1.05 |
| SK-MES-1 | 0.816 | 0.706 | 0.568 | 0.42 | 0.424 | 0.317 | 0.349 | 0.307 | 0.42 | 0.36 | 0.405 | 0.307 | 0.265 | 0.26 | 0.547 | 0.64 | 0.389 | 0.332 | 0.369 | 0.39 |
| SW 1573 | 0.978 | 0.962 | 1 | 0.925 | 0.524 | 0.551 | 0.616 | 0.526 | 0.53 | 0.607 | 0.516 | 0.644 | 0.541 | 0.618 | 0.387 | 0.376 | 0.353 | 0.299 | 0.393 | 0.962 |
| UMC-11 | 1.03 | 0.955 | 1.03 | 0.983 | 0.73 | 0.732 | 0.667 | 0.7 | 0.908 | 0.469 | 0.427 | 0.462 | 0.46 | 0.456 | 0.358 | 0.33 | 0.324 | 0.314 | 0.303 | 0.959 |
